In patent US11180530B2, “Salt of phenylpropionamide derivative and preparation method therefor” (priority 2017, dated 2021):
Where a name gives a salt, the structure may show the parent alone. Read-outs that look alike come from different tables or passages of the source. Where a SMILES comes first, the peptide text is derived from it. [ ]: non-standard residue; d: D form. The star is where a group is joined. Gly(N-(2R-Ph-propyl)) = C[C@@H](CNCC(=O)O)c1ccccc1; Piperidin1yl(4-NH2,4-COOH) = NC1(C(=O)O)CCN(*)CC1

Experiments:
[1] = assay type: physicochemical
Description: Samples of the compound represented by formula (I) and acetate, hydrochloride, citrate and phosphate of the compound represented by formula (I) were respectively placed open and evenly spread, so that the stability of the samples were investigated under the conditions of room temperature, heating (40° C., 60° C.), illumination (4500Lux) and high humidity (RH75% and RH90%). The sampling period is 20 days.

[2] = assay type: physicochemical; remark: listed apart in the source
Description: Samples of acetate, hydrochloride, citrate and phosphate of the compound represented by formula (I) were subjected to a long-term accelerated stability investigation for 6 months under dark and sealed conditions (the inner package is a medicinal low-density polyethylene composite film and the outer package is aluminum foil), humidity (60% RH), temperature (4° C., 25° C.) and with/without nitrogen protection.

[3] = 25° C., 60% RH, nitrogen protection, 1 month
[4] = 25° C., 60% RH, nitrogen protection, 3 months
[5] = 25° C., 60% RH, nitrogen protection, 6 months
[6] = 25° C., 60% RH, nitrogen protection, initial

SMILES: CC(C)C[C@@H](NC(=O)[C@@H](Cc1ccccc1)NC(=O)CNC[C@H](C)c1ccccc1)C(=O)N[C@H](CCCCN)C(=O)N1CCC(N)(C(=O)O)CC1 [Acetate (1:1)] (H-[Gly(N-(2R-Ph-propyl))][dF][dL][dK]-{Piperidin1yl(4-NH2,4-COOH)})
- Stability (conclusion in words) ([1]; illumination, 40° C., 60° C.): degraded varying degrees
- Long-term stability (conclusion in words) ([2]; 6 months, 4° C., 25° C., 60% RH, with/without nitrogen protection, amorphous samples): stable

SMILES: CC(C)C[C@@H](NC(=O)[C@@H](Cc1ccccc1)NC(=O)CNC[C@H](C)c1ccccc1)C(=O)N[C@H](CCCCN)C(=O)N1CCC(N)(C(=O)O)CC1 [Acetate (1:2)] (H-[Gly(N-(2R-Ph-propyl))][dF][dL][dK]-{Piperidin1yl(4-NH2,4-COOH)})
- Stability (conclusion in words) ([1]; high temperature): poor stability
- acetate (radical) content by ion chromatography ([1]; high temperature, after the 20-day experiment): greatly reduced

SMILES: CC(C)C[C@@H](NC(=O)[C@@H](Cc1ccccc1)NC(=O)CNC[C@H](C)c1ccccc1)C(=O)N[C@H](CCCCN)C(=O)N1CCC(N)(C(=O)O)CC1 [Citrate (1:2)] (H-[Gly(N-(2R-Ph-propyl))][dF][dL][dK]-{Piperidin1yl(4-NH2,4-COOH)})
- Stability (conclusion in words) ([1]; high temperature of 60° C.): degraded greatly

SMILES: CC(C)C[C@@H](NC(=O)[C@@H](Cc1ccccc1)NC(=O)CNC[C@H](C)c1ccccc1)C(=O)N[C@H](CCCCN)C(=O)N1CCC(N)(C(=O)O)CC1 [Embodiment 2, 4-amino-1-((2R,5R,8R,14R)-2-(4-aminobutyl)-8-benzyl-5-isobutyl-4,7,10-trioxo-14-phenyl-3,6,9,12-tetraazapentadecan-1-acyl)piperidine-4-carboxylic acid] (H-[Gly(N-(2R-Ph-propyl))][dF][dL][dK]-{Piperidin1yl(4-NH2,4-COOH)})
- Purity % ([1]; 25° C., 5 days): 97.64%
- Purity % ([1]; 25° C., 10 days): 97.64%
- Purity % ([1]; 25° C., 20 days): 97.63%
- Purity % ([1]; 40° C., 5 days): 96.23%
- Purity % ([1]; 4500 Lux, 0 days (initial)): 97.65%
- Purity % ([1]; 4500 Lux, 5 days): 96.99%
- Purity % ([1]; 4500 Lux, 10 days): 96.68%
- Purity % ([1]; 4500 Lux, 20 days): 96.72%

SMILES: CC(C)C[C@@H](NC(=O)[C@@H](Cc1ccccc1)NC(=O)CNC[C@H](C)c1ccccc1)C(=O)N[C@H](CCCCN)C(=O)N1CCC(N)(C(=O)O)CC1 [Embodiment 3, 4-amino-1-((2R,5R,8R,14R)-2-(4-aminobutyl)-8-benzyl-5-isobutyl-4,7,10-trioxo-14-phenyl-3,6,9,12-tetraazapentadecan-1-acyl)piperidine-4-carboxylic acid] (H-[Gly(N-(2R-Ph-propyl))][dF][dL][dK]-{Piperidin1yl(4-NH2,4-COOH)})
- Purity % ([2]; 4° C., 1 month): 99.59%
- Purity % ([2]; 4° C., 3 months): 99.58%
- Purity % ([2]; 4° C., 6 months): 99.60%
- Purity % ([2]; 4° C., initial): 99.59%
- Aspect [2, 3]: White
- Purity % [2, 3]: 99.58%
- Aspect [2, 4]: White
- Purity % [2, 4]: 99.51%
- Aspect [2, 5]: White
- Purity % [2, 5]: 99.54%
- Aspect [2, 6]: White
- Purity % [2, 6]: 99.59%
- Aspect ([2]; 25° C., 60% Rh, 1 month): White
- Purity % ([2]; 25° C., 60% Rh, 1 month): 99.62%
- Aspect ([2]; 25° C., 60% Rh, 3 months): White
- Purity % ([2]; 25° C., 60% Rh, 3 months): 99.61%
- Aspect ([2]; 25° C., 60% Rh, 6 months): White
- Purity % ([2]; 25° C., 60% Rh, 6 months): 99.57%
- Aspect ([2]; 25° C., 60% Rh, initial): White
- Purity % ([2]; 25° C., 60% Rh, initial): 99.59%

SMILES: CC(C)C[C@@H](NC(=O)[C@@H](Cc1ccccc1)NC(=O)CNC[C@H](C)c1ccccc1)C(=O)N[C@H](CCCCN)C(=O)N1CCC(N)(C(=O)O)CC1 [Embodiment 4, 4-amino-1-((2R,5R,8R,14R)-2-(4-aminobutyl)-8-benzyl-5-isobutyl-4,7,10-trioxo-14-phenyl-3,6,9,12-tetraazapentadecan-1-acyl)piperidine-4-carboxylic acid] (H-[Gly(N-(2R-Ph-propyl))][dF][dL][dK]-{Piperidin1yl(4-NH2,4-COOH)})
- Purity % ([1]; 25° C., 5 days): 97.56%
- Purity % ([1]; 25° C., 10 days): 97.44%
- Purity % ([1]; 25° C., 20 days): 97.28%
- Purity % ([1]; 40° C., 5 days): 86.31%
- Purity % ([1]; 4500 Lux, 0 days (initial)): 97.70%
- Purity % ([1]; 4500 Lux, 5 days): 95.83%
- Purity % ([1]; 4500 Lux, 10 days): 94.91%
- Purity % ([1]; 4500 Lux, 20 days): 92.17%

SMILES: CC(C)C[C@@H](NC(=O)[C@@H](Cc1ccccc1)NC(=O)CNC[C@H](C)c1ccccc1)C(=O)N[C@H](CCCCN)C(=O)N1CCC(N)(C(=O)O)CC1 [Embodiment 6, 4-amino-1-((2R,5R,8R,14R)-2-(4-aminobutyl)-8-benzyl-5-isobutyl-4,7,10-trioxo-14-phenyl-3,6,9,12-tetraazapentadecan-1-acyl)piperidine-4-carboxylic acid] (H-[Gly(N-(2R-Ph-propyl))][dF][dL][dK]-{Piperidin1yl(4-NH2,4-COOH)})
- Purity % ([1]; 25° C., 5 days): 99.27%
- Purity % ([1]; 25° C., 10 days): 99.27%
- Purity % ([1]; 25° C., 20 days): 99.30%
- Purity % ([1]; 40° C., 5 days): 99.03%
- Purity % ([1]; 4500 Lux, 0 days (initial)): 99.32%
- Purity % ([1]; 4500 Lux, 5 days): 97.13%
- Purity % ([1]; 4500 Lux, 10 days): 95.32%
- Purity % ([1]; 4500 Lux, 20 days): 92.39%

SMILES: CC(C)C[C@@H](NC(=O)[C@@H](Cc1ccccc1)NC(=O)CNC[C@H](C)c1ccccc1)C(=O)N[C@H](CCCCN)C(=O)N1CCC(N)(C(=O)O)CC1 [Embodiment 11, 4-amino-1-((2R,5R,8R,14R)-2-(4-aminobutyl)-8-benzyl-5-isobutyl-4,7,10-trioxo-14-phenyl-3,6,9,12-tetraazapentadecan-1-acyl)piperidine-4-carboxylic acid] (H-[Gly(N-(2R-Ph-propyl))][dF][dL][dK]-{Piperidin1yl(4-NH2,4-COOH)})
- Purity % ([2]; 4° C., 1 month): 99.49%
- Purity % ([2]; 4° C., 3 months): 99.56%
- Purity % ([2]; 4° C., 6 months): 99.57%
- Purity % ([2]; 4° C., initial): 99.50%
- Purity % [2, 3]: 99.50%
- Purity % [2, 4]: 99.51%
- Purity % [2, 5]: 99.51%
- Purity % [2, 6]: 99.50%
- Purity % ([2]; 25° C., 60% Rh, 1 month): 99.50%
- Purity % ([2]; 25° C., 60% Rh, 3 months): 99.52%
- Purity % ([2]; 25° C., 60% Rh, 6 months): 99.5%
- Purity % ([2]; 25° C., 60% Rh, initial): 99.50%

SMILES: CC(C)C[C@@H](NC(=O)[C@@H](Cc1ccccc1)NC(=O)CNC[C@H](C)c1ccccc1)C(=O)N[C@H](CCCCN)C(=O)N1CCC(N)(C(=O)O)CC1 [Embodiment 12, 4-amino-1-((2R,5R,8R,14R)-2-(4-aminobutyl)-8-benzyl-5-isobutyl-4,7,10-trioxo-14-phenyl-3,6,9,12-tetraazapentadecan-1-acyl)piperidine-4-carboxylic acid] (H-[Gly(N-(2R-Ph-propyl))][dF][dL][dK]-{Piperidin1yl(4-NH2,4-COOH)})
- Purity % ([1]; 25° C., 5 days): 96.93%
- Purity % ([1]; 25° C., 10 days): 96.80%
- Purity % ([1]; 25° C., 20 days): 96.97%
- Purity % ([1]; 4500 Lux, 0 days (initial)): 97.04%
- Purity % ([1]; 4500 Lux, 5 days): 96.65%
- Purity % ([1]; 4500 Lux, 10 days): 96.63%
- Purity % ([1]; 4500 Lux, 20 days): 96.77%

SMILES: CC(C)C[C@@H](NC(=O)[C@@H](Cc1ccccc1)NC(=O)CNC[C@H](C)c1ccccc1)C(=O)N[C@H](CCCCN)C(=O)N1CCC(N)(C(=O)O)CC1 [Embodiment 13, 4-amino-1-((2R,5R,8R,14R)-2-(4-aminobutyl)-8-benzyl-5-isobutyl-4,7,10-trioxo-14-phenyl-3,6,9,12-tetraazapentadecan-1-acyl)piperidine-4-carboxylic acid] (H-[Gly(N-(2R-Ph-propyl))][dF][dL][dK]-{Piperidin1yl(4-NH2,4-COOH)})
- Purity % ([1]; 4500 Lux, 0 days (initial)): 97.39%
- Purity % ([1]; 4500 Lux, 5 days): 97.29%
- Purity % ([1]; 4500 Lux, 10 days): 97.28%
- Purity % ([1]; 4500 Lux, 20 days): 97.28%

SMILES: CC(C)C[C@@H](NC(=O)[C@@H](Cc1ccccc1)NC(=O)CNC[C@H](C)c1ccccc1)C(=O)N[C@H](CCCCN)C(=O)N1CCC(N)(C(=O)O)CC1 [Embodiment 14, 4-amino-1-((2R,5R,8R,14R)-2-(4-aminobutyl)-8-benzyl-5-isobutyl-4,7,10-trioxo-14-phenyl-3,6,9,12-tetraazapentadecan-1-acyl)piperidine-4-carboxylic acid] (H-[Gly(N-(2R-Ph-propyl))][dF][dL][dK]-{Piperidin1yl(4-NH2,4-COOH)})
- Purity % ([1]; 4500 Lux, 0 days (initial)): 99.19%
- Purity % ([1]; 4500 Lux, 5 days): 99.15%
- Purity % ([1]; 4500 Lux, 10 days): 99.12%
- Purity % ([1]; 4500 Lux, 20 days): 99.12%

SMILES: CC(C)C[C@@H](NC(=O)[C@@H](Cc1ccccc1)NC(=O)CNC[C@H](C)c1ccccc1)C(=O)N[C@H](CCCCN)C(=O)N1CCC(N)(C(=O)O)CC1 [hydrochloride (1:2)] (H-[Gly(N-(2R-Ph-propyl))][dF][dL][dK]-{Piperidin1yl(4-NH2,4-COOH)})
- Stability (conclusion in words) ([1]; illumination and high temperature, 20 days): slightly degraded

SMILES: CC(C)C[C@@H](NC(=O)[C@@H](Cc1ccccc1)NC(=O)CNC[C@H](C)c1ccccc1)C(=O)N[C@H](CCCCN)C(=O)N1CCC(N)(C(=O)O)CC1 [hydrochloride (1:3)] (H-[Gly(N-(2R-Ph-propyl))][dF][dL][dK]-{Piperidin1yl(4-NH2,4-COOH)})
- Stability (conclusion in words) ([1]; illumination condition): slightly degraded
- Stability (conclusion in words) ([1]; other conditions (than illumination)): stable
